Measurements as given in patent publication US12391972B2, “Capillary-based system for accelerated antimicrobial susceptibility testing” (Cornell University, priority 2019, dated 2025).

Experiments:
Type in all cases: cell-based, Escherichia coli
[1] = tested on: E. coli clinical strain 7426; experiment: cAST platform antimicrobial susceptibility testing (resazurin, capillary format)
Protocol: (§1) The disclosure includes use of steel capillary tubes of size 50 mm×1.59 mm×0.76 mm (L×O.D.×I.D.) to hold the samples. Alternatively, glass capillary tubes (Drummond Scientific) of similar size can also be used. However, in the case of glass, the ends of the tubes are coated with paint or a similar substance to prevent excess light from the LEDs leaking into the fiber-optic detector. During sample loading, 4 μL liquid culture droplets were individually pipetted onto a clean substrate and then loaded into the tubes via capillary action. The capillary tubes used as conduits were sterilized prior to loading through autoclaving. Following loading, tubes were inserted into the sample holder in a configuration that allows light from the LEDs to pass through the sample and into the fiber-optic detector. Since the volume capacity of the capillary tubes was higher than the sample volume of 4 μL, the tubes were loaded with the fluid-filled side near the light-source as this configuration was determined to yield higher signal-to-noise ratios. This approach to sample loading is encompassed by the disclosure. During AST, the cAST platform was placed inside a benchtop incubator (Corning) set to 37° C. in ambient air. A small portable humidifier was also placed inside the incubator (80-85% relative humidity) to minimize sample drying during incubation. Thus, in embodiments, a system of the disclosure may include a humidifying device or composition to act as […]. Every 30 min, spectral intensity measurements were automatically taken for each sample and data were transferred and stored on a computer for processing using OceanView (Ocean Optics).
(§2) The cAST platform was initially used to test five different quality control (QC) strains: Escherichia coli ATCC 25922, Enterobacter cloacae ATCC 13047, Acinetobacter baumannii ATCC BAA-747, Pseudomonas aeruginosa ATCC 27853, and Escherichia coli K12 ER2267 (kanamycin resistant). To prepare inocula for AST, strains were first streaked on Mueller-Hinton II agar plates (Becton, Dickinson and Company) and incubated overnight at 37° C. in ambient air. For the kanamycin resistant E. coli K12 strain, the agar was supplemented with kanamycin (MilliporeSigma) at a final concentration of 50 μg/mL. Liquid cultures were then prepared by inoculating single colonies into CAMHB, followed by overnight incubation at 37° C. in ambient air. […] Using a spectrophotometer (V-1200, VWR), the OD625nm absorbance corresponding to a 0.5 McFarland standard was verified to be in the range of 0.08-0.13^21. […] Resazurin is a redox indicator that is reduced by metabolically active cells into resorufin, leading to significant colorimetric and fluorescent changes in the culture media which can be measured to gauge bacterial growth^20. […]

[2] = tested on: E. coli clinical strain 7704; experiment: as above
Protocol: as §1, §2

[3] = tested on: E. coli clinical strain 7426; experiment: clinical gradient diffusion (E-test, bioMérieux); conditions: gradient diffusion overnight
Protocol: (§3) Following testing of the QC strains, the cAST platform was used to test two E. coli clinical isolates. Following the same protocol used to test the QC strains, the clinical isolates were tested with ten two-fold dilution gentamicin concentrations spanning 0.5 μg/mL to 256 μg/mL. Testing was conducted blind and results were subsequently compared with clinical results generated using gradient diffusion (E-test, bioMérieux).

[4] = tested on: E. coli clinical strain 7704; experiment: clinical gradient diffusion (E-test, bioMérieux); conditions: gradient diffusion overnight
Protocol: as §3

[5] = cAST in categorical agreement with gradient diffusion

Substance: gentamicin
- predicted MIC ([1]; cAST at 6 h): 128 µg/mL
- susceptibility category [1, 5]: resistant (resistant (≥16 μg/mL))
- predicted MIC ([2]; cAST at 6 h): 1 µg/mL
- susceptibility category [2, 5]: susceptible (susceptible (≤4 μg/mL))
- MIC [3]: ≥ 256 µg/mL
- MIC [4]: 1.5 µg/mL
